From the supplement of paper PMC10307832

Key:
Experiment in all cases: relative viability (nuclei count vs DMSO), 5 days (fraction); higher = more cells survive
CAP-232 + Bortezomib = compound: C[C@H]([C@@H](C(=O)N)NC(=O)[C@@H]1CSSC[C@@H](C(=O)N[C@H](C(=O)N[C@@H](C(=O)N[C@H](C(=O)N1)CCCCN)CC2=CNC3=CC=CC=C32)CC4=CC=C(C=C4)O)NC(=O)[C@@H](CC5=CC=CC=C5)N)O [CAP-232] + CC(C)C[C@H](NC(=O)[C@H](Cc1ccccc1)NC(=O)c1cnccn1)B(O)O [Bortezomib] (partner 0.002 µM)
In short: (§1)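 Relative viability was taken as the ratio of nuclei in treated wells to nuclei in vehicle wells. Lung cancer cell lines in 1536-well plates received compounds by pin tool one day after seeding, either one drug alone or a fixed anchor-drug dose plus five library-drug doses (not always all listed) in √10 steps. Nuclei were counted on 4× images after 5 days of treatment, and values are medians of duplicate plates.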

CAP-232 + Linsitinib = compound: C[C@H]([C@@H](C(=O)N)NC(=O)[C@@H]1CSSC[C@@H](C(=O)N[C@H](C(=O)N[C@@H](C(=O)N[C@H](C(=O)N1)CCCCN)CC2=CNC3=CC=CC=C32)CC4=CC=C(C=C4)O)NC(=O)[C@@H](CC5=CC=CC=C5)N)O [CAP-232] + C[C@]1(O)C[C@@H](c2nc(-c3ccc4ccc(-c5ccccc5)nc4c3)c3c(N)nccn32)C1 [Linsitinib] (partner 1 µM)
In short: as §1

CAP-232 + Phenformin = compound: C[C@H]([C@@H](C(=O)N)NC(=O)[C@@H]1CSSC[C@@H](C(=O)N[C@H](C(=O)N[C@@H](C(=O)N[C@H](C(=O)N1)CCCCN)CC2=CNC3=CC=CC=C32)CC4=CC=C(C=C4)O)NC(=O)[C@@H](CC5=CC=CC=C5)N)O [CAP-232] + N=C(N)NC(=N)NCCc1ccccc1 [Phenformin] (partner 250 µM)
In short: as §1

CAP-232 + AZD7762 = compound: C[C@H]([C@@H](C(=O)N)NC(=O)[C@@H]1CSSC[C@@H](C(=O)N[C@H](C(=O)N[C@@H](C(=O)N[C@H](C(=O)N1)CCCCN)CC2=CNC3=CC=CC=C32)CC4=CC=C(C=C4)O)NC(=O)[C@@H](CC5=CC=CC=C5)N)O [CAP-232] + NC(=O)Nc1cc(-c2cccc(F)c2)sc1C(=O)N[C@H]1CCCNC1 [AZD7762] (partner 0.2 µM)
In short: as §1

CAP-232 + Decitabine = compound: C[C@H]([C@@H](C(=O)N)NC(=O)[C@@H]1CSSC[C@@H](C(=O)N[C@H](C(=O)N[C@@H](C(=O)N[C@H](C(=O)N1)CCCCN)CC2=CNC3=CC=CC=C32)CC4=CC=C(C=C4)O)NC(=O)[C@@H](CC5=CC=CC=C5)N)O [CAP-232] + Nc1ncn([C@H]2C[C@H](O)[C@@H](CO)O2)c(=O)n1 [Decitabine] (partner 2 µM)
In short: as §1

| Cell Line | relative viability (CAP-232 + Bortezomib; first compound 0.4 µM) | relative viability (CAP-232 + Bortezomib; first compound 1.265 µM) | relative viability (CAP-232 + Bortezomib; first compound 4 µM) | relative viability (CAP-232 + Bortezomib; first compound 12.65 µM) | relative viability (CAP-232 + Linsitinib; first compound 0.4 µM) | relative viability (CAP-232 + Linsitinib; first compound 1.265 µM) | relative viability (CAP-232 + Linsitinib; first compound 4 µM) | relative viability (CAP-232 + Linsitinib; first compound 12.65 µM) | relative viability (CAP-232 + Phenformin; first compound 0.4 µM) | relative viability (CAP-232 + Phenformin; first compound 1.265 µM) | relative viability (CAP-232 + Phenformin; first compound 4 µM) | relative viability (CAP-232 + Phenformin; first compound 12.65 µM) | relative viability (CAP-232 + AZD7762; first compound 0.4 µM) | relative viability (CAP-232 + AZD7762; first compound 1.265 µM) | relative viability (CAP-232 + AZD7762; first compound 4 µM) | relative viability (CAP-232 + AZD7762; first compound 12.65 µM) | relative viability (CAP-232 + Decitabine; first compound 0.4 µM) | relative viability (CAP-232 + Decitabine; first compound 1.265 µM) | relative viability (CAP-232 + Decitabine; first compound 4 µM) | relative viability (CAP-232 + Decitabine; first compound 12.65 µM) |
| --- | --- | --- | --- | --- | --- | --- | --- | --- | --- | --- | --- | --- | --- | --- | --- | --- | --- | --- | --- | --- |
| NCI-H1792 | 1.13 | 1.01 | 1.27 | 0.845 | 0.493 | 0.56 | 0.654 | 0.285 | 0.129 | 0.193 | 0.247 | 0.188 | 0.892 | 0.715 | 0.793 | 0.757 | 0.636 | 0.54 | 0.555 | 0.365 |
| NCI-H1915 | 1.1 | 1.05 | 1.06 | 0.95 | 1.08 | 1.1 | 1.08 | 0.986 | 0.419 | 0.356 | 0.407 | 0.397 | 0.771 | 0.685 | 0.704 | 0.762 | 0.272 | 0.227 | 0.269 | 0.25 |
| NCI-H1975 | 0.336 | 0.351 | 0.416 | 0.255 | 1.03 | 1.02 | 1.07 | 0.65 | 0.449 | 0.413 | 0.437 | 0.332 | 0.892 | 0.711 | 0.712 | 0.442 | 0.399 | 0.39 | 0.406 | 0.207 |
| NCI-H1993 | 1.26 | 1.07 | 0.966 | 0.896 | 0.778 | 0.758 | 0.788 | 0.7 | 0.497 | 0.541 | 0.545 | 0.564 | 0.756 | 0.702 | 0.694 | 0.633 | 0.569 | 0.676 | 0.608 | 0.559 |
| NCI-H2085 | 1.2 | 0.974 | 1 | 0.791 | 0.816 | 1.04 | 0.955 | 0.843 | 0.713 | 0.703 | 0.741 | 0.688 | 1.04 | 1.03 | 0.988 | 0.964 | 0.56 | 0.542 | 0.511 | 0.545 |
| NCI-H2087 | 1.01 | 0.746 | 1.14 | 0.462 | 0.894 | 0.955 | 0.924 | 0.541 | 0.435 | 0.419 | 0.436 | 0.321 | 1.32 | 1.4 | 1.59 | 0.684 | 0.265 | 0.261 | 0.276 | 0.238 |
| NCI-H2126 | 1.22 | 1.08 | 1.19 | 1.13 | 0.722 | 0.709 | 0.736 | 0.74 | 0.525 | 0.5 | 0.51 | 0.56 | 1.11 | 1.01 | 1.18 | 1.01 | 0.488 | 0.612 | 0.618 | 0.614 |
| NCI-H2347 | 1.14 | 1.19 | 1.2 | 0.846 | 0.989 | 0.967 | 1.04 | 1.01 | 0.281 | 0.305 | 0.427 | 0.296 | 0.733 | 0.746 | 0.726 | 0.662 | 0.648 | 0.589 | 0.555 | 0.544 |
| NCI-H2405 | 1 | 0.867 | 1.07 | 0.9 | 0.789 | 1.06 | 0.868 | 0.547 | 0.377 | 0.356 | 0.37 | 0.317 | 0.822 | 0.8 | 0.765 | 0.524 | 0.715 | 0.752 | 0.796 | 0.578 |
| NCI-H3122 | 1.01 | 1.05 | 0.896 | 1 | 0.991 | 0.979 | 1.01 | 1.08 | 0.404 | 0.388 | 0.395 | 0.335 | 0.984 | 1.08 | 1.14 | 0.958 | 0.392 | 0.364 | 0.458 | 0.426 |
| PC-3 [JPC-3] | 0.939 | 0.855 | 0.734 | 0.788 | 1.05 | 1 | 0.902 | 0.972 | 0.494 | 0.461 | 0.459 | 0.453 | 1.02 | 0.735 | 0.873 | 0.794 | 0.738 | 0.895 | 0.821 | 0.864 |
| PC-14 | 0.931 | 0.817 | 1.07 | 0.821 | 1.01 | 0.955 | 0.955 | 0.775 | 0.577 | 0.56 | 0.659 | 0.386 | 0.522 | 0.297 | 0.334 | 0.24 | 0.215 | 0.191 | 0.205 | 0.151 |
| RERF-LC-KJ | 1.16 | 1.15 | 1.44 | 0.987 | 1.01 | 0.886 | 0.933 | 0.854 | 0.493 | 0.4 | 0.388 | 0.315 | 1.01 | 1.03 | 0.997 | 0.914 | 0.659 | 0.758 | 0.79 | 0.41 |
